Laboratory results published in US20240024488A1, “COMPOUNDS AND USES THEREOF” (Foghorn Therapeutics Inc., priority 2020, published 2024).

How the values were obtained:
HiBit-BRM fusion protein = target: T1, HiBit-BRM fusion protein (Homo sapiens, UniProt P51531); assay: HiBiT-BRM cell-based degradation assay (Nano-Glo HiBiT Lytic Detection, 24 h); conditions: HeLa cell line expressing HiBiT-BRM; for DC50: read-out: BRM HiBit Degradation IC50
T1 construct: expressed in transfected cells
Method in brief: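 Stable HiBiT-BRM HeLa line; 24 h compound exposure, top final 30 μM, 3-fold, 10 pts in duplicate. Lytic HiBiT/LgBiT luminescence readout. % degradation vs DMSO (0%) and 2 μM known BRM/BRG1 degrader (100%).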

[1] = target: T2, HiBit-BRG1 fusion protein (Homo sapiens, UniProt P51532); assay: HiBiT-BRG1 cell-based degradation assay (Nano-Glo HiBiT Lytic Detection, 24 h); conditions: HeLa cell line expressing HiBit-BRG1 and LgBit; for Dmax: read-out: BRG1 HiBit Degradation Maximum (%); for DC50: read-out: BRMG1 HiBit Degradation IC50
T2 construct: expressed in transfected cells
T2 sequence (P51532 whole entry, the tested form may be a part): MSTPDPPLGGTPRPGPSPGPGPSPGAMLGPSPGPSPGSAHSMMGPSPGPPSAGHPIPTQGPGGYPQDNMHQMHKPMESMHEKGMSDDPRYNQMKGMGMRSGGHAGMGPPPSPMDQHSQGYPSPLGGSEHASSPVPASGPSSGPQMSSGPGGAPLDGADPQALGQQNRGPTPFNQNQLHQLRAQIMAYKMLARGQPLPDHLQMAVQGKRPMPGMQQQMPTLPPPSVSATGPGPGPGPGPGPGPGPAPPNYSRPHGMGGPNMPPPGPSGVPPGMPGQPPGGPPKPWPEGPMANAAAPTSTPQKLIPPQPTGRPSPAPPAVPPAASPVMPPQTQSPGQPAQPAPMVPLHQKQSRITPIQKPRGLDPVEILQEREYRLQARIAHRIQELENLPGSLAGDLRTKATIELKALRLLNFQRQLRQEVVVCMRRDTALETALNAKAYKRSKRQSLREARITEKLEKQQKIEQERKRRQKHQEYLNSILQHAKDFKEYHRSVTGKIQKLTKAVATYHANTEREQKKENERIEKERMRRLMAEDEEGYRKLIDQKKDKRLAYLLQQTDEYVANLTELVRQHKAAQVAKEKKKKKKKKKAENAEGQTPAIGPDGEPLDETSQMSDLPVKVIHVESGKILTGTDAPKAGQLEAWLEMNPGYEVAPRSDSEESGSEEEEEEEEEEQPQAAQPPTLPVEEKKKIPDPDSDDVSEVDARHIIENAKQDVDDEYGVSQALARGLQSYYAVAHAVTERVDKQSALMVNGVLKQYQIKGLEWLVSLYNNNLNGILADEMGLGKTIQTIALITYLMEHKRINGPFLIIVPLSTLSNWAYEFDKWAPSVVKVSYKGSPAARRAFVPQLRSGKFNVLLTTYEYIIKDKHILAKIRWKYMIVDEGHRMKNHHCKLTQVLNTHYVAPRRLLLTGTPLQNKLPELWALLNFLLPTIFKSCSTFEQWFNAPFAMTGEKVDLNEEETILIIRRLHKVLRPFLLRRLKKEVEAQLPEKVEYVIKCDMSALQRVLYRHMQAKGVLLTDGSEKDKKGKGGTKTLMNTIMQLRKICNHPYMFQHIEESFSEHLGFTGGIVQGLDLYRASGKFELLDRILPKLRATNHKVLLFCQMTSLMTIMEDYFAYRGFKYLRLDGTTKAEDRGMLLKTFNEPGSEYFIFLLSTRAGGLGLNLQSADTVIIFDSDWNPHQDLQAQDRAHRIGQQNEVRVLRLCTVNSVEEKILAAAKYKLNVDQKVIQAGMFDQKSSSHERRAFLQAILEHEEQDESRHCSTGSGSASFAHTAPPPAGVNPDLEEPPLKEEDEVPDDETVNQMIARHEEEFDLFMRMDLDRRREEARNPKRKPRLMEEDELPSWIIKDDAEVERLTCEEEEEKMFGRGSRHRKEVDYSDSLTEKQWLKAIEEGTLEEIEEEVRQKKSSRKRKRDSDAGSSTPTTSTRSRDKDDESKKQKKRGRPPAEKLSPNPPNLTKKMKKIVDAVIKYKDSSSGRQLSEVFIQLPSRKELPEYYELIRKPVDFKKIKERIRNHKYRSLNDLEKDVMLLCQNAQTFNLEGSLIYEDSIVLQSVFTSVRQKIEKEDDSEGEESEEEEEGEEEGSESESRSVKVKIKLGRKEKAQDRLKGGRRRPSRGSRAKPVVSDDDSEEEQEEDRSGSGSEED
Method in brief: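 HeLa cells stably expressing HiBiT-BRG1 plus LgBit, 5000/well, treated 24 h, then lysed with Nano-Glo HiBiT lytic reagent and luminescence read. % degradation normalised between DMSO (high control) and 2 μM reference BRM/BRG1 degrader (low control).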

T1 sequence (P51531 whole entry, the tested form may be a part): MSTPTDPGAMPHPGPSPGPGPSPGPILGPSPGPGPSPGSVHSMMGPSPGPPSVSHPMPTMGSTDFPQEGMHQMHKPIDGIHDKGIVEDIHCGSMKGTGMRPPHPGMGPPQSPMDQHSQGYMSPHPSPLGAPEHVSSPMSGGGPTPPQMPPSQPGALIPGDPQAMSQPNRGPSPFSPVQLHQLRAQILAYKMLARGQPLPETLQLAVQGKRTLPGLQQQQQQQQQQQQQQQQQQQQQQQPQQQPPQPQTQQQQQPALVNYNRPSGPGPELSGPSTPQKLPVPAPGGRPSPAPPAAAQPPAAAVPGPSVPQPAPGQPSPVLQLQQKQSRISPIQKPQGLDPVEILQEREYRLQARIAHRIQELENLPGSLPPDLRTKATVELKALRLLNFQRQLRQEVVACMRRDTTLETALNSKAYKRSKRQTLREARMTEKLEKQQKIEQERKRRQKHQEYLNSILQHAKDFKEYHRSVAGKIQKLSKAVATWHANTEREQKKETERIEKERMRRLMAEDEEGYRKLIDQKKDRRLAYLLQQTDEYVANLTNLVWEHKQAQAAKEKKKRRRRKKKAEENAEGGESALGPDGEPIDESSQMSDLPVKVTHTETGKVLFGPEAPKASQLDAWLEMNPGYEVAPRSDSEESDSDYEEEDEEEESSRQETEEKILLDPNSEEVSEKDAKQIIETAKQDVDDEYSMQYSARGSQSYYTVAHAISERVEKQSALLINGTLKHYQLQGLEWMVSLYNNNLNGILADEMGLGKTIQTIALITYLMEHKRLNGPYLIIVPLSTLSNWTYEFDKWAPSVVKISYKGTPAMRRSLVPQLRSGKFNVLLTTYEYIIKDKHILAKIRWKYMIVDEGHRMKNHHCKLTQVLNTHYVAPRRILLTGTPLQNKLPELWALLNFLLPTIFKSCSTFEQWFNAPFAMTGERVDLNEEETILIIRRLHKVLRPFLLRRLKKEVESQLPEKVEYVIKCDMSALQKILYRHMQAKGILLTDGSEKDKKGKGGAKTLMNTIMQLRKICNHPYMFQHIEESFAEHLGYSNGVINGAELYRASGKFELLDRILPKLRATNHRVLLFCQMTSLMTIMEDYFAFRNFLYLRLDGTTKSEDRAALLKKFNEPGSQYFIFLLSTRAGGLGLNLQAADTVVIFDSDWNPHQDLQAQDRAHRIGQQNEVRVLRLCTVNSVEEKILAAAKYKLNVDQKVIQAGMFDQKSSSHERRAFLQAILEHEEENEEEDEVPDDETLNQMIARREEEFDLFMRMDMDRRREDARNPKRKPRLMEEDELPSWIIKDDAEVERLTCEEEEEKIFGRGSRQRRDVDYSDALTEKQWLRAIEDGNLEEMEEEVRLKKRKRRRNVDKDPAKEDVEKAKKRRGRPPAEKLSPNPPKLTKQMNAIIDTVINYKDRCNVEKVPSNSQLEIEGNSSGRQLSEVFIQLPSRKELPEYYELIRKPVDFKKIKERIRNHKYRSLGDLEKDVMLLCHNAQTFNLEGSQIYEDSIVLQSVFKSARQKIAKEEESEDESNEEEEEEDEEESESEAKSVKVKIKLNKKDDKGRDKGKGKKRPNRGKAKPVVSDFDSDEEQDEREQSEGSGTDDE

DC50 (HiBit-BRM fusion protein) [µM]	Dmax [1] [%]	DC50 [1] [µM]	SMILES	BRM HiBit Degradation Maximum (%) (HiBit-BRM fusion protein)
> 0.1	< 50		Cc1ncsc1-c1ccc([C@H](C)NC(=O)[C@@H]2C[C@@H](O)CN2C(=O)[C@@H](c2cc(OCCNC(=O)c3cc4cc(-c5ccccc5O)nnc4[nH]3)no2)C(C)C)cc1 (racemic) [Compound 239, N-(2-((5-((R)-1-((2S,4R)-4-hydroxy-2-(((S)-1-(4-(4-methylthiazol-5-yl)phenyl)ethyl)carbamoyl)pyrrolidin-1-yl)-3-methyl-1-oxobutan-2-yl)isoxazol-3-yl)oxy)ethyl)-3-(2-hydroxyphenyl)-7H-pyrrolo[2,3-c]pyridazine-6-carboxamide]	A (“A” indicates maximum degradation ≥ 75%)
> 0.1	< 50		Cc1ncsc1-c1ccc([C@H](C)NC(=O)[C@@H]2C[C@@H](O)CN2C(=O)[C@@H](c2cc(OCCN(C)C(=O)c3cc4cc(-c5ccccc5O)nnc4[nH]3)no2)C(C)C)cc1 (racemic) [Compound 242, N-(2-((5-((R)-1-((2S,4R)-4-hydroxy-2-(((S)-1-(4-(4-methylthiazol-5-yl)phenyl)ethyl)carbamoyl)pyrrolidin-1-yl)-3-methyl-1-oxobutan-2-yl)isoxazol-3-yl)oxy)ethyl)-3-(2-hydroxyphenyl)-N-methyl-7H-pyrrolo[2,3-c]pyridazine-6-carboxamide]	B (“B” indicates maximum degradation ≥ 50%)
> 0.1	< 50		Cc1ncsc1-c1ccc([C@H](C)NC(=O)[C@@H]2C[C@@H](O)CN2C(=O)[C@@H](c2cc(OCCNC(=O)CN3CC(c4cc5cc(-c6ccccc6O)nnc5[nH]4)C3)no2)C(C)C)cc1 (racemic) [Compound 249, (2S,4R)-4-hydroxy-1-((R)-2-(3-(2-(2-(3-(3-(2-hydroxyphenyl)-7H-pyrrolo[2,3-c]pyridazin-6-yl)azetidin-1-yl)acetamido)ethoxy)isoxazol-5-yl)-3-methylbutanoyl)-N-((S)-1-(4-(4-methylthiazol-5-yl)phenyl)ethyl)pyrrolidine-2-carboxamide]	A (“A” indicates maximum degradation ≥ 75%)

The remaining lines, values behind:

SMILES	DC50 (HiBit-BRM fusion protein) [µM]	Dmax [1] [%]	DC50 [1] [µM]	BRM HiBit Degradation Maximum (%) (HiBit-BRM fusion protein)
Cc1ncsc1-c1ccc([C@H](C)NC(=O)[C@@H]2C[C@@H](O)CN2C(=O)[C@@H](c2cc(OCCNC(=O)C(=O)N3CC(c4cc5cc(-c6ccccc6O)nnc5[nH]4)C3)no2)C(C)C)cc1 (racemic) [Compound 240, (2S,4R)-4-hydroxy-1-((R)-2-(3-(2-(2-(3-(3-(2-hydroxyphenyl)-7H-pyrrolo[2,3-c]pyridazin-6-yl)azetidin-1-yl)-2-oxoacetamido)ethoxy)isoxazol-5-yl)-3-methylbutanoyl)-N-((S)-1-(4-(4-methylthiazol-5-yl)phenyl)ethyl)pyrrolidine-2-carboxamide]	> 0.1	> 50	> 1	A (“A” indicates maximum degradation ≥ 75%)
Cc1ncsc1-c1ccc([C@H](C)NC(=O)[C@@H]2C[C@@H](O)CN2C(=O)[C@@H](c2cc(OCCN3CC(CCCc4cc5cc(-c6ccccc6O)nnc5[nH]4)C3)no2)C(C)C)cc1 (racemic) [Compound 243, (2S,4R)-4-hydroxy-1-[(2R)-2-{3-[2-(3-{3-[3-(2-hydroxyphenyl)-7H-pyrrolo[2,3-c]pyridazin-6-yl]propyl}azetidin-1-yl)ethoxy]-1,2-oxazol-5-yl}-3-methylbutanoyl]-N-[(1S)-1-[4-(4-methyl-1,3-thiazol-5-yl)phenyl]ethyl]pyrrolidine-2-carboxamide]	> 0.1	> 50	> 1	A (“A” indicates maximum degradation ≥ 75%)
Cc1ncsc1-c1ccc([C@H](C)NC(=O)[C@@H]2C[C@@H](O)CN2C(=O)[C@@H](c2cc(OCCN3CC(CCc4cc5cc(-c6ccccc6O)nnc5[nH]4)C3)no2)C(C)C)cc1 (racemic) [Compound 244, (2S,4R)-4-hydroxy-1-((R)-2-(3-(2-(3-(2-(3-(2-hydroxyphenyl)-7H-pyrrolo[2,3-c]pyridazin-6-yl)ethyl)azetidin-1-yl)ethoxy)isoxazol-5-yl)-3-methylbutanoyl)-N-((S)-1-(4-(4-methylthiazol-5-yl)phenyl)ethyl)pyrrolidine-2-carboxamide]	> 0.1	> 50		A (“A” indicates maximum degradation ≥ 75%)
Cc1ncsc1-c1ccc([C@H](C)NC(=O)[C@@H]2C[C@@H](O)CN2C(=O)[C@@H](c2cc(OCCN3[C@@H]4CC[C@H]3CN(c3cc5cc(-c6ccccc6O)nnc5[nH]3)C4)no2)C(C)C)cc1 (racemic) [Compound 245, (2S,4R)-4-hydroxy-1-((2R)-2-(3-(2-(3-(3-(2-hydroxyphenyl)-7H-pyrrolo[2,3-c]pyridazin-6-yl)-3,8-diazabicyclo[3.2.1]octan-8-yl)ethoxy)isoxazol-5-yl)-3-methylbutanoyl)-N-((S)-1-(4-(4-methylthiazol-5-yl)phenyl)ethyl)pyrrolidine-2-carboxamide]	> 0.01	> 75	> 0.1	A (“A” indicates maximum degradation ≥ 75%)
Cc1ncsc1-c1ccc([C@H](C)NC(=O)[C@@H]2C[C@@H](O)CN2C(=O)[C@@H](c2cc(OCCN(C)CC34CC(c5cc6cc(-c7ccccc7O)nnc6[nH]5)(C3)C4)no2)C(C)C)cc1 (racemic) [Compound 246, (2S,4R)-4-hydroxy-1-((R)-2-(3-(2-(((3-(3-(2-hydroxyphenyl)-7H-pyrrolo[2,3-c]pyridazin-6-yl)bicyclo[1.1.1]pentan-1-yl)methyl)(methyl)amino)ethoxy)isoxazol-5-yl)-3-methylbutanoyl)-N-((S)-1-(4-(4-methylthiazol-5-yl)phenyl)ethyl)pyrrolidine-2-carboxamide]	> 0.01	> 75	> 0.1	A (“A” indicates maximum degradation ≥ 75%)
Cc1ncsc1-c1ccc([C@H](C)NC(=O)[C@@H]2C[C@@H](O)CN2C(=O)[C@@H](c2cc(N3CCC(CN4CC(c5cc6cc(-c7ccccc7O)nnc6[nH]5)C4)CC3)no2)C(C)C)cc1 (racemic) [Compound 247, (2S,4R)-4-hydroxy-1-((R)-2-(3-(4-((3-(3-(2-hydroxyphenyl)-7H-pyrrolo[2,3-c]pyridazin-6-yl)azetidin-1-yl)methyl)piperidin-1-yl)isoxazol-5-yl)-3-methylbutanoyl)-N-((S)-1-(4-(4-methylthiazol-5-yl)phenyl)ethyl)pyrrolidine-2-carboxamide]	> 0.01	> 50	> 1	A (“A” indicates maximum degradation ≥ 75%)
Cc1ncsc1-c1ccc([C@H](C)NC(=O)[C@@H]2C[C@@H](O)CN2C(=O)[C@@H](c2cc(N3CCC(N4CC(c5cc6cc(-c7ccccc7O)nnc6[nH]5)C4)CC3)no2)C(C)C)cc1 (racemic) [Compound 248, (2S,4R)-4-hydroxy-1-((R)-2-(3-(4-(3-(3-(2-hydroxyphenyl)-7H-pyrrolo[2,3-c]pyridazin-6-yl)azetidin-1-yl)piperidin-1-yl)isoxazol-5-yl)-3-methylbutanoyl)-N-((S)-1-(4-(4-methylthiazol-5-yl)phenyl)ethyl)pyrrolidine-2-carboxamide]	> 0.01	> 50	> 0.1	A (“A” indicates maximum degradation ≥ 75%)
